Experimental data taken from patent US20220257491A1, “Prebiotic Oral Care Compositions and Methods” (Colgate-Palmolive Company, priority 2021, published 2022).
Marks after values point to notes of the source that are not given here.

Legend:
Assay type in all cases: cell-based
S. mutans = assay: Multi-species biofilm composition: absolute abundance of S. mutans; conditions: mean±SD n=3
Experimental: (§1) Biofilms are grown vertically on Calcium Deficient Hydroxyapatite (CAD-HA) disks (Hitemco Medical, Old Bethpage, USA) using the Amsterdam Active Adhesion model. Biofilms are allowed to establish during 24 h (37° C., 170 rpm) under micro-aerophilic conditions (6% O2, 7% CO2, 7% H2, 80% N2). After this 24 h, disks are rinsed 3 times a day for 3 minutes (RT, 250 rpm), for 3 consecutive days, by transferring the lid containing the disks to a new 24-well plate containing 2 mL/well of the appropriate substrate solution. As a negative control, PBS (pH 5.7) without substrate supplementation is used. After each rinsing step, disks are shortly dip-rinsed in a new 24-well plate containing fresh modified BHI medium (2 mL/well) to remove remaining substrate traces. Subsequently, the lid is transferred to another 24-well plate containing fresh modified BHI medium (2 mL/well), followed by incubation (micro-aerophilic, 37° C., 170 rpm) until the next rinsing step.
(§2) NADM, N-acetyl-D-glucosamine (“NADG”) and D-(+)-mannose are selected to determine their effects on multi-species biofilm composition. Repeated rinsing of the biofilms with the substrates at a concentration of 1M results in a significant decrease in absolute numbers in at least four of the pathogenic bacterial species tested in the assay, compared to the control, the results of which are described in Table 1 below. Absolute abundances of bacterial species are shown as mean±SD (n=3) logarithmic values of the genome equivalents per millilitre (log(Geq/mL)).

P. gingivalis = assay: Multi-species biofilm composition: absolute abundance of P. gingivalis; conditions: for Absolute abundance Pg (P. gingivalis): mean±SD n=3
Experimental: as §1
(§3) NADM, N-acetyl-D-glucosamine (“NADG”) and D-(+)-mannose are selected to determine their effects on multi-species biofilm composition. […] decrease in absolute numbers in at least four of the pathogenic bacterial species tested in the assay, compared to the control, the results of which are described in Table 1 below. Absolute abundances of bacterial species are shown as mean±SD (n=3) logarithmic values of the genome equivalents per millilitre (log(Geq/mL)).

[1] = tested on: P. intermedia virulence genes; assay: Multi-species biofilm virulence gene expression, SYBR RT-qPCR: P. intermedia; conditions: for Fold Change in virulence gene expression: DnaJ / Fold Change in virulence gene expression: DnaK / Fold Change in virulence gene expression: ECF / Fold Change in virulence gene expression: GroES / Fold Change in virulence gene expression: HtpG / Fold Change in virulence gene expression: KpsD / Fold Change in virulence gene expression: adpc / Fold Change in virulence gene expression: clpB / Fold Change in virulence gene expression: inpA / Fold Change in virulence gene expression: phg: relative to control (=1), 2^-ΔΔCt, geometric mean n=3
Experimental: as §1
The expression of 33 virulence genes from 4 periodontal pathogens is analysed to evaluate the relative virulence of the substrate-treated biofilms. For all three substrates, virulence gene expression is determined relatively to the control, and these values are also compared between substrates when this is relevant (Tables 5a-5d).

S. salivarius = assay: Multi-species biofilm composition: absolute abundance of S. salivarius; conditions: mean±SD n=3
Experimental: as §1, §2

multi-species biofilm = assay: Relative multi-species biofilm composition (groups of bacterial species); conditions: for Relative abundance Beneficials/Commensals / Relative abundance Cariogenic Pathogens / Relative abundance Periodontal Pathogens / Relative abundance Beneficial or commensals: mean±SD n=3
Experimental: as §1, §3
Relative abundances of the different groups (beneficial/commensals, periodontal pathogens, cariogenic pathogens) of bacterial species are shown as mean±SD (n=3) percentage of the genome equivalents per millilitre (% (Geq/mL)). […] NADM: N-acetyl-D-mannosamine; NADG: N-acetyl-D-glucosamine.

S. gordonii = assay: Multi-species biofilm composition: absolute abundance of S. gordonii; conditions: mean±SD n=3
Experimental: as §1, §2

A. naeslundii = assay: Multi-species biofilm composition: absolute abundance of A. naeslundii; conditions: mean±SD n=3
Experimental: as §1, §2

multi-species biofilms = assay: Multi-species biofilm organic acid balances (supernatant); conditions: >0 production, <0 consumption, mean±SD n=3
Experimental: as §1
To examine the effect of NADM and the influence of the orientation and absence/presence of the N-acetyl group on organic acid production and consumption, supernatant samples from substrate-treated or untreated multi-species biofilms are analysed. […] When comparing relevant significant differences between substrate conditions, an increase in acetate production is observed for NADM compared to D-(+)-mannose (3084±174 vs. 1934±56 mg/L).

[2] = tested on: human oral keratinocytes (HOK-18A); assay: Inflammatory mediator gene expression in keratinocytes exposed to substrate-treated biofilms; conditions: for Fold change in inflammatory mediator gene expression: IL-1β / Fold change in inflammatory mediator gene expression: IL-6 / Fold change in inflammatory mediator gene expression: IL-8 / Fold change in inflammatory mediator gene expression: MMP-8 / Fold change in inflammatory mediator gene expression: TNF-α: relative to control (=1), geometric mean (95% C.I.) n=3
Experimental: Cultures of immortalized human oral keratinocytes (HOK-18A) are grown. The relative inflammatory potential of the substrate-treated multi-species biofilms is evaluated by analyzing the expression of five inflammatory mediator genes in human oral keratinocytes (HOKs) exposed to the substrate-treated biofilms. […] The IL-8 levels in the cellular supernatant are determined as well. RNA is converted to cDNA and relative expression of inflammatory mediator genes is determined as described above with respect to the cellular housekeeping gene (3-actin.
In HOKs exposed to substrate-treated (substrate concentrations of 1 M) multi-species biofilms, mostly decreases in inflammatory mediator gene expression are observed and measured via SYBR RT-qPCR, the results of which are detailed in Table 6.
All substrates are dissolved in PBS at a concentration of 1 M (upper part) or 1% (w/v) (lower part). Values between 0 and 1 represent relative downregulation, values >1 represent relative upregulation. […] For such values, statistically significant differences between two experimental conditions are marked with ‘#1’ (vs. NADM), ‘#2’ (vs. NADG), ‘#3’ (vs. D-(+)-mannose) (P<0.05).

[3] = substrate 1%(w/v) in PBS, listed as D-(+)-mannose
[4] = substrate 1 M in PBS, listed as D-(+)-mannose
[5] = substrate 1 M, listed as D-(+)-mannose
[6] = biofilm rinsed with substrate 1%
[7] = biofilm rinsed with substrate 1M

SMILES: O=C[C@@H](O)[C@@H](O)[C@H](O)[C@H](O)CO [D-mannose, D-(+)-mannose]
- Absolute abundance S. mutans (S. mutans; substrate 1%(w/v) in PBS): 7.34 ± 0.12 log(Geq/mL)
- Absolute abundance S. mutans (S. mutans; substrate 1 M in PBS): 8.60 ± 0.09 log(Geq/mL)
- Absolute abundance Pg (P. gingivalis) (P. gingivalis; substrate 1%(w/v) in PBS): 7.08 ± 0.17 log(Geq/mL)
- Difference in P. gingivalis amounts compared to NADG (P. gingivalis; substrate 1 M): −1.25 log(Geq/mL)
- Absolute abundance Pg (P. gingivalis) (P. gingivalis; substrate 1 M in PBS): 2.75 ± 0.08*^, #2 log(Geq/mL)
- Relative P. intermedia virulence gene expression, downregulation ([1]; substrate 1%(w/v), D-(+)-mannose for 3 genes): 2- to 2.7 fold
- Fold Change in virulence gene expression: DnaJ ([1]; substrate 1%): 0.37 fold
- Fold Change in virulence gene expression: DnaK ([1]; substrate 1%): 0.63 fold
- Fold Change in virulence gene expression: ECF ([1]; substrate 1%): 0.6 fold
- Fold Change in virulence gene expression: GroES ([1]; substrate 1%): 0.51 fold
- Fold Change in virulence gene expression: HtpG ([1]; substrate 1%): 0.46 fold
- Fold Change in virulence gene expression: KpsD ([1]; substrate 1%): 0.96 fold
- Fold Change in virulence gene expression: adpc ([1]; substrate 1%): 0.54 fold
- Fold Change in virulence gene expression: clpB ([1]; substrate 1%): 1.00 fold
- Fold Change in virulence gene expression: inpA ([1]; substrate 1%): 0.37 fold
- Fold Change in virulence gene expression: phg ([1]; substrate 1%): 0.50 fold
- Fold Change in virulence gene expression: DnaJ ([1]; substrate 1M): 0.03 fold
- Fold Change in virulence gene expression: DnaK ([1]; substrate 1M): 0.44 fold
- Fold Change in virulence gene expression: ECF ([1]; substrate 1M): 1.47 fold
- Fold Change in virulence gene expression: GroES ([1]; substrate 1M): 0.37 fold
- Fold Change in virulence gene expression: HtpG ([1]; substrate 1M): 0.29 fold
- Fold Change in virulence gene expression: KpsD ([1]; substrate 1M): 0.42 fold
- Fold Change in virulence gene expression: adpc ([1]; substrate 1M): 0.27 fold
- Fold Change in virulence gene expression: clpB ([1]; substrate 1M): 0.14 fold
- Fold Change in virulence gene expression: inpA ([1]; substrate 1M): 0.47 fold
- Fold Change in virulence gene expression: phg ([1]; substrate 1M): 0.10 fold
- Absolute abundance S. sal. (S. salivarius) (S. salivarius; substrate 1%(w/v) in PBS): 2.89 ± 0.35 log(Geq/mL)
- Absolute abundance S. sal. (S. salivarius) (S. salivarius; substrate 1 M in PBS): 3.63 ± 0.90 log(Geq/mL)
- Relative abundance Beneficials/Commensals (multi-species biofilm; substrate 1%(w/v) in PBS): 84.18 ± 2.04 % (Geq/mL)
- Relative abundance Cariogenic Pathogens (multi-species biofilm; substrate 1%(w/v) in PBS): 0.21 ± 0.04 % (Geq/mL)
- Relative abundance Periodontal Pathogens (multi-species biofilm; substrate 1%(w/v) in PBS): 15.61 ± 2.00 % (Geq/mL)
- Relative abundance Beneficials/Commensals (multi-species biofilm; [3]): 84.18±2.04 % (Geq/mL)
- Relative abundance Periodontal Pathogens (multi-species biofilm; [3]): 15.61±2.00 % (Geq/mL)
- Relative abundance Beneficial or commensals (multi-species biofilm; substrate 1 M in PBS): 96.83 ± 0.62 % (Geq/mL)
- Relative abundance Cariogenic Pathogens (multi-species biofilm; substrate 1 M in PBS): 2.40 ± 0.85 % (Geq/mL)
- Relative abundance Periodontal Pathogens (multi-species biofilm; substrate 1 M in PBS): 0.77 ± 0.82 *^, #1 % (Geq/mL)
- Relative abundance Beneficial or commensals (multi-species biofilm; [4]): 96.83±0.62 % (Geq/mL)
- Relative abundance Periodontal Pathogens (multi-species biofilm; [4]): 0.77±0.82 % (Geq/mL)
- Reduction of A. actinomycetemcomitans, F. nucleatum, P. gingivalis, A. naeslundii and A. viscosus numbers vs control (multi-species biofilm; substrate 1 M, range over the species): −1.2 to −3.7 log(Geq/mL)
- Absolute abundance S. gord. (S. gordonii) (S. gordonii; substrate 1%(w/v) in PBS): 8.29 ± 0.11 log(Geq/mL)
- Absolute abundance S. gord. (S. gordonii) (S. gordonii; substrate 1 M in PBS): 9.19 ± 0.39 log(Geq/mL)
- Absolute abundance An (A. naeslundii) (A. naeslundii; substrate 1%(w/v) in PBS): 7.59 ± 0.05 log(Geq/mL)
- Absolute abundance An (A. naeslundii) (A. naeslundii; substrate 1 M in PBS): 5.54 ± 0.24 log(Geq/mL)
- acetate level in biofilm supernatant (multi-species biofilms; substrate 1%(w/v)): 352 ± 24 mg/L
- butyrate level in biofilm supernatant (multi-species biofilms; substrate 1%(w/v)): 1985 ± 37 mg/L
- formate level in biofilm supernatant (multi-species biofilms; substrate 1%(w/v)): 3717 ± 114 mg/L
- lactate level in biofilm supernatant (multi-species biofilms; substrate 1%(w/v)): 125 ± 0 mg/L
- propionate level in biofilm supernatant (multi-species biofilms; substrate 1%(w/v)): 1962 ± 28 mg/L
- acetate level in biofilm supernatant (multi-species biofilms; substrate 1 M): 1934 ± 56*^, #1 mg/L
- butyrate level in biofilm supernatant (multi-species biofilms; substrate 1 M): 86 ± 15*^, #1, 2 mg/L
- formate level in biofilm supernatant (multi-species biofilms; substrate 1 M): 398 ± 12 mg/L
- lactate level in biofilm supernatant (multi-species biofilms; substrate 1 M): 125 ± 0 mg/L
- propionate level in biofilm supernatant (multi-species biofilms; substrate 1 M): 2821 ± 127 mg/L
- acetate level in biofilm supernatant (multi-species biofilms; [5]): 1934 ± 56 mg/L
- butyrate level in biofilm supernatant (multi-species biofilms; [5]): 85 ± 15 mg/L
- propionate level in biofilm supernatant (multi-species biofilms; [5]): 2821 ± 127 mg/L
- Fold change in inflammatory mediator gene expression: IL-1β [2, 6]: 0.79 (0.43-1.48) fold
- Fold change in inflammatory mediator gene expression: IL-6 [2, 6]: 0.79 (0.60-1.06) fold
- Fold change in inflammatory mediator gene expression: IL-8 [2, 6]: 1.22 (0.79-1.86) fold
- Fold change in inflammatory mediator gene expression: MMP-8 [2, 6]: 0.40 (0.27-0.58)* fold
- Fold change in inflammatory mediator gene expression: TNF-α [2, 6]: 0.770.48-1.23) fold
- Fold change in inflammatory mediator gene expression: IL-1β [2, 7]: 0.81 (0.59-1.12) fold
- Fold change in inflammatory mediator gene expression: IL-6 [2, 7]: 0.63 (0.41-0.97) fold
- Fold change in inflammatory mediator gene expression: IL-8 [2, 7]: 0.12 (0.06-0.27)* fold
- Fold change in inflammatory mediator gene expression: MMP-8 [2, 7]: 1.25 (1.10-1.42) fold
- Fold change in inflammatory mediator gene expression: TNF-α [2, 7]: 0.77 (0.37-1.60) fold
- Decreased MMP-8 gene expression ([2]; substrate 1%(w/v)): 2.5 fold
